A word on the melting point: it is the temperature, or range, at which the solid turns liquid.

In the case of `O=C1Oc2ccc(F)cc2-c2c(c3c4ccccc4c(=O)c3c3c2c(=O)c2ccccc23)C(=O)c2ccccc21` [9-fluoro-dibenzo[b,g]indeno[1′,2′:3,4]fluoreno-[1,2-d]oxonine-5,11,16,21-tetraone], the melting point lay in the range of 288 to 289 °C.

Source of the values: patent US11883379B1, “9-flouro-dibenzo[B,G]indeno[1′, 2′:3,4]fluoreno-[1,2-D]oxonine-5, 11, 16,21-tetraone as an antimicrobial agent” (KING FAISAL UNIVERSITY, priority 2023, dated 2024).
